Measurements published in publication PMC3227869 (Biochemistry, 2009).

Legend:
Type in all cases: biochemical
E. coli GCH I (FolE) = E. coli GCH I (FolE) (Escherichia coli, UniProt P0A6T5); test: HPLC of product; details: anaerobic
mouse PTPS (mPTPS) = target: T1, mouse PTPS (mPTPS) (Mus musculus, UniProt Q9R1Z7); test: HPLC of product, UV-visible spectra; details: anaerobic; H2NTP generated in situ from GTP by FolE; control reaction
T1 sequence (Q9R1Z7 1-144): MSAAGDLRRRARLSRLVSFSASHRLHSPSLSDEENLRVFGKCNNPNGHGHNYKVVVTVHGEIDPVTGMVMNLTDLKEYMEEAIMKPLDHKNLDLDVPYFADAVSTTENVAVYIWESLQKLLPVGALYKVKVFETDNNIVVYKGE

E. coli QueD = target: T2, E. coli QueD (Escherichia coli, UniProt P65870); test: HPLC of product, UV-visible spectra; details: anaerobic (95% N2:5% H2)
T2 sequence (P65870 1-121): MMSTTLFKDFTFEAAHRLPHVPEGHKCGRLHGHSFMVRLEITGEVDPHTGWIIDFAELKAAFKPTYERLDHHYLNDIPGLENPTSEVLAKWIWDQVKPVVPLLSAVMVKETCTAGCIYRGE

Chain of E. coli GCH I (FolE) (P0A6T5 2-222): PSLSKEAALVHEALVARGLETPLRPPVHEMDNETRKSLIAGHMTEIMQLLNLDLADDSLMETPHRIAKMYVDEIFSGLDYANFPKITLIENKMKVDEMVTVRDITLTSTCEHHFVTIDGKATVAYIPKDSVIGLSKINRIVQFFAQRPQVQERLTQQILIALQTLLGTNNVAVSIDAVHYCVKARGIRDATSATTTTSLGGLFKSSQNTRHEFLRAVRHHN

`Nc1nc2c(ncn2[C@@H]2O[C@H](COP(=O)(O)OP(=O)(O)OP(=O)(O)O)[C@@H](O)[C@H]2O)c(=O)[nH]1` [GTP] was tested. Which HPLC of product (E. coli GCH I (FolE)) did it give?
The HPLC of product was “H2NTP could be produced quantitatively from GTP”.

`Nc1nc2c(c(=O)[nH]1)N=C([C@H](O)[C@H](O)COP(=O)(O)OP(=O)(O)OP(=O)(O)O)CN2` [H2NTP] was tested. Which “HPLC of product, UV-visible spectra” value (mouse PTPS (mPTPS)) did it give?
Its value is “H2NTP was quantitatively converted to PPH4”.

For `C[C@H](O)C(=O)C1=Nc2c(nc(N)[nH]c2=O)NC1` [sepiapterin], which “HPLC of product, UV-visible spectra” value (E. coli QueD) is on record?
Its value is “the same product forms when sepiapterin is the substrate for QueD”.
